In patent publication EP2963022A1, “FUSED HETEROCYCLIC COMPOUND AND PEST CONTROL APPLICATIONS THEREOF” (priority 2013, dated 2014):

Columns and labels:
Format in all cases: in vivo
[1] = test system: Adoxophyes orana fasciata; test: Test Example 7: spray test on apple tree against Adoxophyes orana fasciata larvae; conditions: in Malus domestica, 168 h, read-out: Death rate
Method: The formulations of Compounds of Present Invention 1-2 and 1-3 as obtained in Formulation Example 5 were diluted with water, so as to have a concentration of the active ingredient of 500 ppm, to prepare a test spray solution.
On the other hand, an apple tree was planted in a plastic cup, and grown until the seventh-eighth true leaf was spread. To the apple tree was sprayed, at a rate of 20 mL/cup, the test drug solution. After the drug solution was dried, 60 first-instar larvae of Adoxophyes orana fasciata were released, and covered with a plastic cup the bottom of which was cut off and on which a filter paper was put, with the plastic cup cover placed upside-down. After 7 days, the number of dead insects was counted, and the death rate was calculated according to the following equation. Death rate (%) = (Number of deads insects/Number of tested insects) × 100 [formula]

Culex pipiens pallens = test: Test Example 10: larvicidal test in water against Culex pipiens pallens; conditions: 24 h, active ingredient concentration 3.5 ppm in ion-exchanged water, last-instar larvae, one day later, read-out: Death rate
Method: The formulations of Compounds of Present Invention 1-2, 1-3 and 1-8 as obtained in Formulation Example 5 were diluted with water, so as to have a concentration of the active ingredient of 500 ppm, to prepare a test drug solution.
0.7 ml of the test drug solution was added to 100 ml of ion-exchanged water (active ingredient concentration: 3.5 ppm). 20 last-instar larvae of Culex pipiens pallens were released into the solution. One day later, the life and death of the Culex pipiens pallens was examined, and the number of dead insects was counted to calculate the death rate. Death rate (%) = (Number of deads insects/Number of tested insects) × 100 [formula]

Plutella xylostella = test: Test Example 6: spray test on cabbage against Plutella xylostella larvae; conditions: 120 h, sprayed 20 mL/cup on cabbage, second instar larvae, 5 days at 25°C, read-out: Death rate
Method: On the other hand, on cabbage at the third leaf stage planted in a polyethylene cup was sprayed, at a rate 20 mL/cup, the test drug solution. After the drug solution was dried, the foliage part was cut off, and then placed in a 50 mL volume cup. Five second instar larvae of Plutella xylostella were released into the cup, and the cup was sealed with a lid. After the cup was kept at 25°C for 5 days, the number of dead insects was counted. The death rate was calculated according to the following equation. Death rate (%) = (Number of deads insects/Number of tested insects) × 100 [formula]

Musca domestica = test: Test Example 8: filter paper and sucrose bait test against Musca domestica; conditions: 24 h, read-out: Death rate
Method: The formulation of Compound of Present Invention 1-2 as obtained in Formulation Example 5 was diluted with water, so as to have a concentration of the active ingredient of 500 ppm, to prepare a test drug solution.
A filter paper having a diameter of 5.5 cm was spread on the bottom of a polyethylene cup having the same diameter and 0.7 ml of the test drug solution was added dropwise onto the filter paper, and 30 mg of sucrose was uniformly placed as bait. Into the polyethylene cup, 10 female imagoes of Musca domestica were released, and the cup was sealed with a lid. After 24 hours, the life and death of Musca domestica was examined, the number of dead insects was counted, and the death rate was calculated according to the following equation. Death rate (%) = (Number of deads insects/Number of tested insects) × 100 [formula]

[2] = test system: Haemaphysalis longicornis; test: Test Example 11: coated screw tube contact test against Haemaphysalis longicornis ticks; conditions: 48 h, 2 mg in 0.2 mL acetone coated on inner wall of screw tube, unfed nymphal ticks, after 2 days, read-out: Death rate
Method: Compound of Present Invention 1-24 (2 mg) was weighed in a screw tube (Maruemu No. 5; 27 x 55 mm), and 0.2 mL of acetone was added thereto, and the screw tube was sealed with a cap to dissolve the compound. The screw tube was rotated and inverted to uniformly coat the drug solution onto the whole inner wall of the tube. After removing the cap, the solution was air-dried for about 2 hours, then unfed nymphal ticks, Haemaphysalis longicornis (5 ticks/group) were released, and the tube was sealed with the cap. After 2 days, the number of dead insects was counted, and the death rate was calculated according to the following equation. Death rate (%) = 100 × (Number of deads insects/Number of tested insects) [formula]

| SMILES | mortality at 500 ppm [1] | mortality at 3.5 ppm (Culex pipiens pallens) | mortality at 500 ppm (Plutella xylostella) | mortality at 500 ppm (Musca domestica) | mortality at 2 mg/tube [2] |
| --- | --- | --- | --- | --- | --- |
| CCOC(=O)c1ccc(-c2nc3cc(C(F)(F)F)cnc3n2C)c(S(=O)(=O)CC)c1 [1-3] | ≥ 90% | ≥ 95% | ≥ 80% | – | – |
| CCS(=O)(=O)c1cc(C(=O)OC)ccc1-c1nc2cc(C(F)(F)F)cnc2n1C [1-2] | ≥ 90% | ≥ 95% | ≥ 80% | 100% | – |
| CCOC(=O)c1ccc(-c2nc3cc(C(F)(F)F)ccc3n2C)c(S(=O)(=O)CC)c1 [1-8] | – | ≥ 95% | – | – | – |
| CCOC(=O)c1ccc(-c2nc3cc(C(F)(F)F)ccc3s2)c(S(=O)(=O)CC)c1 [1-24] | – | – | – | – | 100% |
